From US20250195537A1, “PSYCHEDELIC DRUG TREATMENT OF NEUROPSYCHIATRIC DISORDERS AND CEREBRAL PALSY” (priority 2021, published 2025)

What was measured:
[1] = Case reports: patients with depression given ketamine with or without an anxiolytic; format: in vivo, human
[2] = Case report: patient with depression and suicidal ideation given ketamine with or without intranasal oxytocin; format: in vivo, human
[3] = Case report: patient with muscle spasm associated with cerebral palsy given intramuscular ketamine; format: in vivo, human; conditions: intramuscular ketamine 0.2-1.2 mg/kg
[4] = cited from earlier work
[5] = ketamine infusions, benzodiazepine users, Albott et al., 2017

Cc1nnc2n1-c1ccc(Cl)cc1C(c1ccccc1)=NC2 [alprazolam]
improvement in depression ([1]; same patient, 0.5 mg alprazolam before the same dose of ketamine): significant improvement in depression

CNC1(c2ccccc2Cl)CCCCC1=O (centres unmarked) [ketamine]
therapeutic benefit ([1]; patient with depression, ketamine alone): did not benefit therapeutically
antidepressant effect ([1]; same patient, ketamine without lorazepam, compared to times with lorazepam): reduced antidepressant effect
improvement in depression or suicidal ideation ([2]; ketamine alone, several times, intramuscular 0.25-1.0 mg/kg): did not experience improvement
muscle spasm after the treatment [3]: reduction in their muscle spasm
antidepressant effect of ketamine ([4]; concomitant use of benzodiazepines, Andrashko et al., 2020): dampened the antidepressant effect
time to antidepressant response [4, 5]: significantly longer
time to depression relapse [4, 5]: significantly shorter
antidepressant response to ketamine infusions ([4]; one patient, after their benzodiazepine was withdrawn, Ford et al. (2015)): more robust

O=C1Nc2ccc(Cl)cc2C(c2ccccc2Cl)=NC1O (centres unmarked) [lorazepam]
antidepressant effect ([1]; patient with depression, 1 mg lorazepam prior to ketamine, several treatments): experienced an antidepressant effect

CC[C@H](C)[C@@H]1NC(=O)[C@H](Cc2ccc(O)cc2)NC(=O)[C@@H](N)CSSC[C@@H](C(=O)N2CCC[C@H]2C(=O)N[C@@H](CC(C)C)C(=O)NCC(N)=O)NC(=O)[C@H](CC(N)=O)NC(=O)[C@H](CCC(N)=O)NC1=O [oxytocin]
severity of depression and suicidal ideation ([2]; same patient, oxytocin 40 IU intranasally 30 minutes before ketamine in same dose range): reduced severity of depression and suicidal ideation
